Measurements published in the NIST ThermoML archive (doi:10.1021/je3007474).
Numbers after ± are expanded uncertainties.

How the values were obtained:
[1] = 101 kPa, Liquid; for viscosity: Falling or rolling sphere viscometry; for mass density: Vibrating tube method
[2] = xn = mol fraction of the nth substance listed; conditions: 101 kPa, Liquid, x2 = 0; for viscosity: Falling or rolling sphere viscometry; for mass density: Vibrating tube method

Row | SMILES | viscosity ([1]; 298.15 K) | mass density ([1]; 298.15 K) | viscosity ([1]; 303.15 K) | mass density ([1]; 303.15 K) | viscosity ([1]; 313.15 K) | mass density ([1]; 313.15 K) | viscosity ([1]; 323.15 K) | mass density ([1]; 323.15 K) | viscosity ([1]; 333.15 K) | mass density ([1]; 333.15 K) | viscosity ([1]; 343.15 K) | mass density ([1]; 343.15 K) | viscosity ([1]; 353.15 K) | mass density ([1]; 353.15 K) | viscosity ([2]; 298.15 K) | mass density ([2]; 298.15 K) | viscosity ([2]; 303.15 K) | mass density ([2]; 303.15 K) | viscosity ([2]; 313.15 K) | mass density ([2]; 313.15 K) | further results
1 | CCCCn1cc[n+](C)c1C.F[B-](F)(F)F [1-butyl-2,3-dimethylimidazolium tetrafluoroborate] | 650 ± 56 mPa·s | 1193.19 ± 0.12 kg/m3 | 447 ± 33 mPa·s | 1189.8 ± 0.12 kg/m3 | 232.9 ± 12 mPa·s | 1183.02 ± 0.11 kg/m3 | 132.8 ± 4.4 mPa·s | 1176.38 ± 0.11 kg/m3 | 81.53 ± 1.5 mPa·s | 1169.82 ± 0.11 kg/m3 | 53.99 ± 0.56 mPa·s | 1163.26 ± 0.11 kg/m3 | 37.13 ± 0.46 mPa·s | 1156.71 ± 0.1 kg/m3 | – | – | – | – | – | – | –
2 | CC#N [acetonitrile] | 0.37 ± 0.005 mPa·s | 776.55 ± 0.15 kg/m3 | 0.354 ± 0.004 mPa·s | 771.13 ± 0.15 kg/m3 | 0.327 ± 0.004 mPa·s | 760.18 ± 0.15 kg/m3 | 0.302 ± 0.004 mPa·s | 749.11 ± 0.16 kg/m3 | 0.281 ± 0.004 mPa·s | 737.86 ± 0.16 kg/m3 | 0.262 ± 0.003 mPa·s | 726.43 ± 0.17 kg/m3 | – | – | – | – | – | – | – | – | –
3 | CC#N [acetonitrile] + CCCCn1cc[n+](C)c1C.F[B-](F)(F)F | – | – | – | – | – | – | – | – | – | – | – | – | – | – | 0.37 ± 0.005 mPa·s | 776.55 ± 0.15 kg/m3 | 0.354 ± 0.004 mPa·s | 771.13 ± 0.15 kg/m3 | 0.327 ± 0.004 mPa·s | 760.18 ± 0.15 kg/m3 | viscosity ([2]; 323.15 K): 0.302 ± 0.004 mPa·s; mass density ([2]; 323.15 K): 749.11 ± 0.16 kg/m3; viscosity ([2]; 333.15 K): 0.281 ± 0.004 mPa·s; mass density ([2]; 333.15 K): 737.86 ± 0.16 kg/m3; viscosity ([2]; 343.15 K): 0.262 ± 0.003 mPa·s; mass density ([2]; 343.15 K): 726.43 ± 0.17 kg/m3
4 | C[S+](C)[O-] [dimethyl sulfoxide] | 2.012 ± 0.025 mPa·s | 1095.74 ± 0.07 kg/m3 | 1.843 ± 0.023 mPa·s | 1090.73 ± 0.07 kg/m3 | 1.556 ± 0.019 mPa·s | 1080.69 ± 0.07 kg/m3 | 1.337 ± 0.016 mPa·s | 1070.66 ± 0.06 kg/m3 | 1.165 ± 0.014 mPa·s | 1060.63 ± 0.06 kg/m3 | 1.028 ± 0.013 mPa·s | 1050.58 ± 0.06 kg/m3 | 0.917 ± 0.011 mPa·s | 1040.51 ± 0.05 kg/m3 | – | – | – | – | – | – | –
5 | C[S+](C)[O-] [dimethyl sulfoxide] + CCCCn1cc[n+](C)c1C.F[B-](F)(F)F | – | – | – | – | – | – | – | – | – | – | – | – | – | – | 2.012 ± 0.025 mPa·s | 1095.74 ± 0.07 kg/m3 | 1.843 ± 0.023 mPa·s | 1090.73 ± 0.07 kg/m3 | 1.556 ± 0.019 mPa·s | 1080.69 ± 0.07 kg/m3 | viscosity ([2]; 323.15 K): 1.337 ± 0.016 mPa·s; mass density ([2]; 323.15 K): 1070.66 ± 0.06 kg/m3; viscosity ([2]; 333.15 K): 1.165 ± 0.014 mPa·s; mass density ([2]; 333.15 K): 1060.63 ± 0.06 kg/m3; viscosity ([2]; 343.15 K): 1.028 ± 0.013 mPa·s; mass density ([2]; 343.15 K): 1050.58 ± 0.06 kg/m3; viscosity ([2]; 353.15 K): 0.917 ± 0.011 mPa·s; mass density ([2]; 353.15 K): 1040.51 ± 0.05 kg/m3
